# Measurements reported in patent publication US20230286970A1, “NOVEL OXADIAZOLE-BASED SELECTIVE HDAC6 INHIBITORS” (ITALFARMACO S.P.A., priority 2020, published 2023).
# Tests used:
# recombinant human HDAC6 = recombinant human HDAC6 (Homo sapiens (Human), UniProt Q9UBN7); test: Enzymatic screening, HDAC6 inhibition (fluorogenic FdL_G substrate); type: biochemical
# Description: (§1) For each test compound, 100× concentrated DMSO solutions at 8 doses were prepared and then diluted in assay buffer (25 mM Tris-HCl, pH 8, 130 mM NaCl, 0.05% Tween-20, 10% Glycerol) to obtain 5× concentrated solutions in relation to the final concentrations (typical final concentration range—6.4-200000 nM or 0.18-50000 nM, final DMSO content—1%). Then 10 μL solution of each test compound concentration were placed on a 96-well plate in triplicate and 15 μL of 3.33× concentrated enzyme solution in the assay buffer containing 3.33× concentrated BSA (final BSA concentration—2 mg/mL for HDAC4, HDAC5 and HDAC9 or 1 mg/mL for other isoforms) and in the case of HDAC6-3.33× concentrated TCEP (final TCEP concentration—200 μM) were added to each well. After a period of preincubation (incubation times and temperatures vary for different isoforms and are shown in table 1) 25 μL of solution containing the substrate were added. As substrate, FLUOR DE LYS® deacetylase substrate (Enzo Life Sciences, cat: BML-KI104, FdL), FLUOR DE LYS®-Green substrate (Enzo Life Sciences, cat: BML-KI572, FdL_G) or Boc-Lys(Tfa)-AMC (Bachem, cat: 4060676.005, Tfal)—2× concentrated solution in assay buffer were used. Following a reaction period (reaction times and temperatures vary for different isoforms and are reported in Table 1), 50 μL of the development solution consisting of concentrate FLUOR DE LYS® developer I (Enzo Life Sciences, ca: BML-KI105), diluted 200 times in buffer (50 mM Tris-HCl, pH 8, 137 mM NaCl, 2.7 mM KCl, 1 mM MgCl2) plus 2 μM TSA was added and, after 25 minutes at room temperature in the dark, using the Victor 1420 Multilabel Counter Perkin Elmer Wallac instrument, the fluorescence reading was carried out.
# recombinant human HDAC1 = recombinant human HDAC1 (Homo sapiens (Human), UniProt Q13547); test: Enzymatic screening, HDAC1 inhibition (fluorogenic FdL_G substrate); type: biochemical
# Description: as §1
# recombinant human HDAC1, sequence (Q13547 whole entry): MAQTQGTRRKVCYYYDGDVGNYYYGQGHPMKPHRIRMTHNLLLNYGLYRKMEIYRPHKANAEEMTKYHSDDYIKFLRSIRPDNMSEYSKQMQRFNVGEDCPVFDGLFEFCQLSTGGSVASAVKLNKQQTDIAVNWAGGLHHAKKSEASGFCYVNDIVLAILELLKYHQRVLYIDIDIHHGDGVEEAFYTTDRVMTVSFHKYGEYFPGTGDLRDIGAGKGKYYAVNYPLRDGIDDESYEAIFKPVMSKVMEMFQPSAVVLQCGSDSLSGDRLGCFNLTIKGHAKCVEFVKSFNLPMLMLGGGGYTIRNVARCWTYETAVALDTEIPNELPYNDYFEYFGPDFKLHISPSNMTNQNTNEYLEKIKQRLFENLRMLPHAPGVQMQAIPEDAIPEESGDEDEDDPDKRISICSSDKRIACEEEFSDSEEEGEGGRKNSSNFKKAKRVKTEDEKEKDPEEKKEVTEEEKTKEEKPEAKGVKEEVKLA
# recombinant human HDAC6, sequence (Q9UBN7 whole entry, canonical isoform): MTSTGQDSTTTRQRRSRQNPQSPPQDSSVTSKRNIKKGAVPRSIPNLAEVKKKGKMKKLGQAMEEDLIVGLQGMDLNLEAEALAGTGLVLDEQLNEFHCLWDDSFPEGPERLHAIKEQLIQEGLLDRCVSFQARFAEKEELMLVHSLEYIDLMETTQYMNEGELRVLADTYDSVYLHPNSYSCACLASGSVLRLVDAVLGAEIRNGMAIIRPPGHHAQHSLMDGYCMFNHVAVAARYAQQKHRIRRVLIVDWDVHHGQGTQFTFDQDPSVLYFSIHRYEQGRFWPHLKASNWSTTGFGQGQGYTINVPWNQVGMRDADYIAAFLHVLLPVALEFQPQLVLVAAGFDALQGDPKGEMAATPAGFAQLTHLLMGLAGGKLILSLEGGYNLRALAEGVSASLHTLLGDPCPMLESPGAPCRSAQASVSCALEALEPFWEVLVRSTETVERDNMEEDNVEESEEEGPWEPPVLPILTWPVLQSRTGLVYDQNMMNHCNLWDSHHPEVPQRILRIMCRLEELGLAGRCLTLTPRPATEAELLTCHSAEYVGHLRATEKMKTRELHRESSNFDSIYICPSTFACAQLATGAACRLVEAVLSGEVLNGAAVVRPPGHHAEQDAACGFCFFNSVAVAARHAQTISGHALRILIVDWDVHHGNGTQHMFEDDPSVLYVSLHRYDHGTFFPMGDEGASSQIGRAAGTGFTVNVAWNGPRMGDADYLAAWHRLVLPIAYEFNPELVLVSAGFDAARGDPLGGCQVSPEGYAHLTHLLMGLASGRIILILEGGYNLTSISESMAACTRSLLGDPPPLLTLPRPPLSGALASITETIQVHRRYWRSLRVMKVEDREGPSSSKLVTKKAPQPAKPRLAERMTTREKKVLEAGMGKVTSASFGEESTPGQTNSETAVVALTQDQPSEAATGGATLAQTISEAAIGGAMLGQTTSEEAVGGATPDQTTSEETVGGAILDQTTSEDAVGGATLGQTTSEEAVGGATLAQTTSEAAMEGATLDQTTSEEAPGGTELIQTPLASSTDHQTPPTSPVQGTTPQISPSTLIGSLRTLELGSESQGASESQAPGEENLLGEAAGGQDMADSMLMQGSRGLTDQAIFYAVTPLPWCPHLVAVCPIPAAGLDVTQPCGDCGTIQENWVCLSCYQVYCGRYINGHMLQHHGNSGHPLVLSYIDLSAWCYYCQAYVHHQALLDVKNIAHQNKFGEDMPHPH
IC50 (recombinant human HDAC6) [nM],IC50 (recombinant human HDAC1) [nM],SMILES
96,> 200000,"CC[C@H](c1ccc(-c2nnc(C(F)F)o2)cc1)n1cc(-c2cccc(NC(=O)N3CCOCC3)c2)nn1 (stereo in doubt) [compound 184, N-(3-(1-(1-(4-(5-(difluoromethyl)-1,3,4-oxadiazol-2-yl)phenyl)propyl)-1H-1,2,3-triazol-4-yl)phenyl)morpholine-4-carboxamide]"
64,> 200000,"CN1CC(C(=O)Nc2cccc(-c3cn(Cc4ccc(-c5nnc(C(F)F)o5)cc4)nn3)c2)C1 [compound 149, N-(3-(1-(4-(5-(difluoromethyl)-1,3,4-oxadiazol-2-yl)benzyl)-1H-1,2,3-triazol-4-yl)phenyl)-1-methylazetidine-3-carboxamide]"
53,> 200000,"Nc1ccc(-c2noc(Cc3ccc(-c4nnc(C(F)F)o4)cc3)n2)cn1 [compound 135, 5-(5-(4-(5-(difluoromethyl)-1,3,4-oxadiazol-2-yl)benzyl)-1,2,4-oxadiazol-3-yl)pyridin-2-amine]"
24,> 1e+06,"Nc1nc2ccc(-c3cn(Cc4ccc(-c5nnc(C(F)F)o5)cc4F)nn3)cc2s1 [compound 339, 6-[1-[[4-[5-(difluoromethyl)-1,3,4-oxadiazol-2-yl]-2-fluorophenyl]methyl]triazol-4-yl]-1,3-benzothiazol-2-amine]"
78,> 200000,"Cn1c(N)nc2ccc(-c3cn(Cc4ccc(-c5nnc(C(F)F)o5)cc4)nn3)cc21 [compound 166, 6-(1-(4-(5-(difluoromethyl)-1,3,4-oxadiazol-2-yl)benzyl)-1H-1,2,3-triazol-4-yl)-1-methyl-1H-benzo[d]imidazol-2-amine]"
57,> 1e+06,"O=C(Nc1cccc(-c2cn(Cc3ncc(-c4nnc(C(F)F)o4)cc3F)nn2)c1)N1CCOCC1 [compound 336, N-[3-[1-[[5-[5-(difluoromethyl)-1,3,4-oxadiazol-2-yl]-3-fluoropyridin-2-yl]methyl]triazol-4-yl]phenyl]morpholine-4-carboxamide]"
99,> 200000,"FC(F)c1nnc(-c2ccc(Cn3cc(-c4ccc5nc(N6CCCC6)[nH]c5c4)nn3)cc2)o1 [compd. 190, 2-(difluoromethyl)-5-(4-((4-(2-(pyrrolidin-1-yl)-1H-benzo[d]imidazol-6-yl)-1H-1,2,3-triazol-1-yl)methyl)phenyl)-1,3,4-oxadiazole]"
446,> 200000,"FC(F)c1nnc(-c2ccc(Cn3nnnc3-c3ncccn3)cc2)o1 [compound 287, 2-(difluoromethyl)-5-(4-((5-(pyrimidin-2-yl)-1H-tetrazol-1-yl)methyl)phenyl)-1,3,4-oxadiazole]"
64,> 200000,"Nc1ccc(-c2cn(C(CN3CCCC3)c3ccc(-c4nnc(C(F)F)o4)cn3)nn2)cn1 (stereo not drawn) [Compd. 301, 5-(1-(1-(5-(5-(difluoromethyl)-1,3,4-oxadiazol-2-yl)pyridin-2-yl)-2-(pyrrolidin-1-yl)ethyl)-1H-1,2,3-triazol-4-yl)pyridin-2-amine]"

# Second part, the molecule before the results:
SMILES,IC50 (recombinant human HDAC6) [nM],IC50 (recombinant human HDAC1) [nM]
"CNC(=O)Nc1ccc(-c2nnc(Cc3ccc(-c4nnc(C(F)F)o4)cc3)o2)cn1 [compd. 170, 1-(5-(5-(4-(5-(difluoromethyl)-1,3,4-oxadiazol-2-yl)benzyl)-1,3,4-oxadiazol-2-yl)pyridin-2-yl)-3-methylurea]",81,> 200000
"Fc1cc(-c2nnc(C(F)F)o2)ccc1Cn1nnc(-c2cccc(-c3nc4c([nH]3)CCNC4)c2)n1 [compound 354, 2-(difluoromethyl)-5-[3-fluoro-4-[[5-[3-(4,5,6,7-tetrahydro-1H-imidazo[4,5-c]pyridin-2-yl)phenyl]tetrazol-2-yl]methyl]phenyl]-1,3,4-oxadiazole]",25,183000
"NCc1ccc(-c2nc(Cc3ccc(-c4nnc(C(F)F)o4)cc3)no2)cc1 [compound 191, (4-(3-(4-(5-(difluoromethyl)-1,3,4-oxadiazol-2-yl)benzyl)-1,2,4-oxadiazol-5-yl)phenyl)methanamine]",102,> 200000
"[2H]C([2H])(c1ccc(-c2nnc(C(F)F)o2)cc1)n1cnc(-c2ccc(NC3=NCCN3)cc2)c1 [compound 368, N-[4-[1-[dideuterio-[4-[5-(difluoromethyl)-1,3,4-oxadiazol-2-yl]phenyl]methyl]imidazol-4-yl]phenyl]-4,5-dihydro-1H-imidazol-2-amine]",17,> 1e+06
"Nc1nc2ccc(-c3cc(Cc4ccc(-c5nnc(C(F)F)o5)cc4)on3)cc2s1 [compd. 366, 6-[5-[[4-[5-(difluoromethyl)-1,3,4-oxadiazol-2-yl]phenyl]methyl]-1,2-oxazol-3-yl]-1,3-benzothiazol-2-amine]",297,> 1e+06
"O=C(NCc1ccco1)c1cccc(-c2nnn(Cc3ccc(-c4nnc(C(F)F)o4)cc3)n2)c1 [compound 96, 3-(2-(4-(5-(difluoromethyl)-1,3,4-oxadiazol-2-yl)benzyl)-2H-tetrazol-5-yl)-N-(furan-2-ylmethyl)benzamide]",37,> 200000
"O=C(Nc1cccc(-c2cn(Cc3ccc(-c4nnc(C(F)F)o4)cc3F)nn2)c1)N1CCOCC1 [compound 47, N-(3-(1-(4-(5-(difluoromethyl)-1,3,4-oxadiazol-2-yl)-2-fluorobenzyl)-1H-1,2,3-triazol-4-yl)phenyl)morpholine-4-carboxamide]",21,> 30000
"Cn1c(N)nc2cc(-n3cc(Cc4ccc(-c5nnc(C(F)F)o5)cc4)nn3)ccc21 [compound 414, 5-[4-({4-[5-(difluoromethyl)-1,3,4-oxadiazol-2-yl]phenyl}methyl)-1H-1,2,3-triazol-1-yl]-1-methyl-1H-1,3-benzodiazol-2-amine]",461,1e+06
"Nc1nc2cc(-c3cn(Cc4ccc(-c5nnc(C(F)F)o5)cc4)cn3)ccc2o1 [compd. 309, 5-[1-[[4-[5-(difluoromethyl)-1,3,4-oxadiazol-2-yl]phenyl]methyl]imidazol-4-yl]-1,3-benzoxazol-2-amine]",69,> 1e+06
"Nc1ccc(-c2noc(Cc3ccc(-c4nnc(C(F)F)o4)cc3F)n2)cc1 [compd. 419, 4-(5-(4-(5-(difluoromethyl)-1,3,4-oxadiazol-2-yl)-2-fluorobenzyl)-1,2,4-oxadiazol-3-yl)aniline]",64,> 1e+06
"Cn1c(Sc2c(F)cc(-c3nnc(C(F)F)o3)cc2F)nnc1-c1ccc(N)nc1 [compound 284, 5-(5-((4-(5-(difluoromethyl)-1,3,4-oxadiazol-2-yl)-2,6-difluorophenyl)thio)-4-methyl-4H-1,2,4-triazol-3-yl)pyridin-2-amine]",323,> 200000
"O=C(Nc1cccc(-c2nc(Cc3ccc(-c4nnc(C(F)F)o4)cc3)no2)c1)N1CCOCC1 [compound 228, N-(3-(3-(4-(5-(difluoromethyl)-1,3,4-oxadiazol-2-yl)benzyl)-1,2,4-oxadiazol-5-yl)phenyl)morpholine-4-carboxamide]",178,> 200000
"Nc1ccc(-c2ncc(Cc3ccc(-c4nnc(C(F)F)o4)cc3)o2)cc1 [compound 330, 4-(5-(4-(5-(difluoromethyl)-1,3,4-oxadiazol-2-yl)benzyl)oxazol-2-yl)aniline]",465,> 1e+06
"Nc1nc2ccc(-c3cnn(Cc4ccc(-c5nnc(C(F)F)o5)cc4)c3)cc2s1 [compound 326, 6-(1-(4-(5-(difluoromethyl)-1,3,4-oxadiazol-2-yl)benzyl)-1H-pyrazol-4-yl)benzo[d]thiazol-2-amine]",219,> 1e+06
"O=C1Nc2ccc(-c3cn(Cc4ccc(-c5nnc(C(F)F)o5)cc4)nn3)cc2C12CCNC2 (stereo not drawn) [compound 49, 5-(1-(4-(5-(difluoromethyl)-1,3,4-oxadiazol-2-yl)benzyl)-1H-1,2,3-triazol-4-yl)spiro[indoline-3,3′-pyrrolidin]-2-one]",21,> 200000
"CC(=O)N1CCC(c2nnn(Cc3ccc(-c4nnc(C(F)F)o4)cc3)n2)CC1 [compound 257, 1-(4-(2-(4-(5-(difluoromethyl)-1,3,4-oxadiazol-2-yl)benzyl)-2H-tetrazol-5-yl)piperidin-1-yl)ethan-1-one]",395,> 200000
"Fc1cc(-c2nnc(C(F)F)o2)ccc1Cc1nc(-c2ccc(NC3=NCCN3)cc2)no1 [compound 420, N-(4-(5-(4-(5-(difluoromethyl)-1,3,4-oxadiazol-2-yl)-2-fluorobenzyl)-1,2,4-oxadiazol-3-yl)phenyl)-4,5-dihydro-1H-imidazol-2-amine]",12,> 1e+06
"O=[N+]([O-])c1ccccc1-c1nnn(Cc2ccc(-c3nnc(C(F)F)o3)cc2)n1 [compound 150, 2-(difluoromethyl)-5-(4-((5-(2-nitrophenyl)-2H-tetrazol-2-yl)methyl)phenyl)-1,3,4-oxadiazole]",64,> 200000
